# Measured values published in patent US6310247A, “7-aryl-6(Z)-heptatrienoic acid retinamides” (Hoffmann-LA Roche Inc., priority 1999, dated 2001).
# Read-outs that look alike come from different tables or passages of the source.
# Test system: H1299 cells
# Assay: Apoptosis: cell death detection by ELISA, H1299 (lung large cell carcinoma)
# Assay type: cell-based
# Conditions: Homo sapiens, NCI-H1299, read-out: Fold induction of apoptosis compared to no drug control
# Experimental: Lung, large cell carcinoma, human (H1299), obtained from ATCC (CRL-5803), were grown in Gibco's Delbecco Minimum Essential media (DMEM), high glucose, supplemented with sodium pyruvate, 10% FBS and 13 ng/mL gentamicin. Cells were incubated at 37° C., 4.5% CO2 and 95.5% humidified air.
# 2. Apoptosis: Cell death detection by ELISA:
# Compounds of formula 1 were tested for the ability to cause apoptosis as follows:
# Cells and media were collected, cells were pelleted, resuspended in 100 μl lysis buffer (50 mM Tris-Cl (pH=8.0), 20 mM EDTA, 1% NP-40e) and incubated 30 minutes at 4° C. to lyse. Cell debris was spun down and an aliquot (30 μl) of the […] was removed for protein determination and stored at -20° C. An additional 280 μl of lysis buffer, was added, mixed thoroughly and spun down at 14,000 RPM for 10 minutes at 4° C. An aliquot was removed (180 μl) and the sample was stored at -20° C. until testing.
# A commercially available apoptosis detection kit, obtained from Boehringer Mannheim (Cat. No. 1544-674), was used as per the directions provided with the kit (Cell Death Detection ELISA). However, the protocol was modified in that a 1:40 to 1:100 dilution of sample was prepared, rather than the recommended 1:10 dilution, due to the increase in cell number used to prepare the sample extract and the subsequent increase in ELISA reactivity. The assay measures apoptosis by quantifying the amount of nucleosomal fragmentation from the extracts of cells treated with the test compounds (samples). These nucleosomal fragments, generated by the activation of endonucleases, are a known downstream effector of apoptosis. Antihistone antibodies are used to fix any nucleosomal fragments in the sample to the well of the microtiter plates. The sample is then incubated with anti-DNA antibodies conjugated to peroxidase and subsequently incubated with the peroxidase substrate, ABTS. The resulting colorimetric change is measured spectrophotometrically at 405/490nm.
# The total protein content of each sample was determined for the purpose of normalizing the ELISA values to amount of sample loaded. Microplate assay protocol described in the instruction manual, for (Biorad DC Assay, Cat.#500-0116) section 5.2. The protein concentrations were calculated based upon a linear regression curve.
# d) ELISA assay calculations
# Relative ELISA O.D. readings are determined by subtracting the ELISA plate background O.D. value. No drug control O.D. value (lysis buffer only) was subtracted from sample O.D. value. A correction coefficient (CC), based on the sample protein concentration compared to no drug control, was determined to correct the sample O.D. following subtraction of the background O.D. (BCS O.D.). The fold increase over no drug control is calculated and normalized to the total protein concentration of the samples by multiplying against the correction coefficient.
# To determine the fold increase in ELISA O.D., obtain the following O.D. measurements:
# ELISA plate background--lysis buffer only (EPB);
# no drug treated control--cell sample treated with DMSO (NDT);
# drug treated sample--cell sample treated with a compound of formula 1 (DT) Subtract EPB from NDT (NDT-EPB) and DT (DT-EPB). The fold increase of the treated over the control is then (DT-EPB)/(NDT-EPB).
# To determine the total protein concentration of the samples, obtain the total protein concentration in mg/ul calculated using standard linear regression formula (y=mx+b) based on BSA standards. B=ELISA background. Protein concentration (PC)(mg/ml)=(sample absorbance-b)/x.
# Correction coefficient (cc) is (NDT)(PC)/(DT)(PC).
# Determine fold increase of ELISA (FT) normalized to total PC:
# nDT is DT×cc (which is DT O.D. normalized to PC)
# nNDT is NDT×cc (which is NDT O.D. normalized to PC)
# FI normalized to PC is nDT/nNDT.
smiles,measurement,setting,value
"C/C(=C/C=C/C(C)=C/C(=O)Nc1ccc(O)cc1)c1cc(C(F)(F)F)cc(C(F)(F)F)c1 [N-(4-hydroxyphenyl)-(2E,4E,6Z)-7-[3,5-bis(trifluoromethyl)phenyl]-3,7-dimethyl-2,4,6-heptatrienamide]",fold induction at 1 µM,24 hrs,1
same,fold induction at 3.3 µM,24 hrs,3
same,fold induction at 10 µM,24 hrs,2
same,fold induction at 1 µM,48 hrs,1
same,fold induction at 3.3 µM,48 hrs,10
same,fold induction at 10 µM,48 hrs,12
same,fold induction at 1 µM,72 hrs,1
same,fold induction at 3.3 µM,72 hrs,17
same,fold induction at 10 µM,72 hrs,20
